Assay type in all cases: in vivo, rat
Assay [1] deals with CPIP rats. Briefly: Mechanical allodynia (von Frey paw withdrawal threshold) after topical ointment in CPIP rats (model of CRPS-I). Particulars: for anti-allodynic effect (PWT to von Frey hair stimulation): single drug; for effectiveness of the agent when administered topically in the combinations: apraclonidine 0.005%, clonidine 0.0075%, lisofylline 0.0078%-0.075%, pentoxifylline 0.3 or 0.6%, linsidomine 0.4%. On the procedure: Ointment type analgesic formulations containing the above-mentioned drugs were prepared according to standard pharmaceutical procedures. The ointments were formulated using a composite, water-soluble polyethylene glycol base system employing carbowax (PEG 3350) and PEG 400 in the ratio of 60:40 respectively. The water-soluble base system was selected due to its non-sticky nature. Briefly, the required amounts of the active ingredients were first weighed out and then added to the already molten base in decreasing order of their melting points, and stirred well. After uniform melting, the formulation was brought to room temperature to ensure proper solidification. A standard amount of 150 mg (mean±SEM=150.88+2.7 mg) of the ointment was used for all rat hind paw applications throughout the experimental procedure, and half this amount for mouse hind paw application.
(§1) Chronic post-ischemia pain (CPIP) was generated following exposure to prolonged hind paw ischemia and reperfusion (Coderre et al., Pain, 112(1):94-105, 2004). Briefly, rats were anesthetized over a 3 h period with a bolus (55 mg/kg, i.p.) followed by chronic i.p. infusion of sodium pentobarbital for 2 h at a rate of 0.15 mL/h. After induction of anesthesia, a Nitrile 70 Durometer O-ring (O-rings West, Seattle, Wash.) with 5.5 mm internal diameter was placed around the rat's left hind limb proximal to the ankle joint. The tight-fitting O-rings produce a complete blockade of arterial blood flow as measured using laser Doppler flowmetry. The ring was then left in place for 3 h. The termination of sodium pentobarbital anesthesia was timed so that the rats recovered fully within 30-60 min following reperfusion. Rats were tested between 2 and 14 days post-IR injury.
(§2) The plantar surface of the ipsilateral hind paw was tested for mechanical allodynia in CPIP and CCI rats. Nylon monofilaments were applied in either ascending (after negative response) or descending (after positive response) force as necessary to determine the filament closest to the threshold of response. Each filament was applied for 10 s or until a flexion reflex occurred. The minimum stimulus intensity was 1 g and the maximum was 15 g. Based on the response pattern, and the force of the final filament (5th stimulus after first direction change), the 50% threshold (grams) was calculated as (10[Xf+kδ])/10000 where Xf=filament number of the final von Frey hair used, k=value for the pattern of positive/negative responses and δ=mean difference in log unit between stimuli (here, δ=0.220, for more details see Chaplan et al., J. Neurosci. Methods, 53(1):55-63, 1994). Mechanical sensitivities were assessed prior to and following several pharmacological treatments.
The topical formulations containing a nitric oxide donor, an α2-adrenergic agonist or a phosphatidic acid inhibitor were tested for their anti-allodynic effects either singly or in combination with each other in definite proportions at concentrations for single agents selected from the published literature in different animal models of pain. Accordingly, the rats received 150 mg of the respective ointment with the first half on the plantar aspect of their hind paws followed by the second half applied on the dorsal surface; in both cases by uniform gentle application using fingers.
In separate groups of rats, formulations containing pentoxifylline or lisofylline were tested in specific drug combinations with constant percentage amounts of clonidine, linsidomine, SNAP or apraclonidine. […] Accordingly, the formulations tested in the combination trials included clonidine (0.0075% W/W) with pentoxifylline (0.3, 0.6 and 1.2% WAN), linsidomine (0.4% W/W) with pentoxifylline (0.075, 0.15 and 0.3% W/W), linsidomine (0.4% W/W) with lisofylline (0.03175, 0.0625 and 0.075% W/W), SNAP (0.0625% W/W) with lisofylline (0.008, 0.015, 0.033 and 0.063% W/W) and apraclonidine (0.005% W/W) with lisofylline (0.0078, 0.0156 and 0.0313% W/W). […]

Assay [2] has as its system CPIP rats. Kind of assay: Laser Doppler post-occlusive reactive hyperemia in CPIP rats, systemic pentoxifylline. To be noted: 25 mg/kg i.p. On the procedure:
as §1, with “The termination of sodium pentobarbital anesthesia was timed so that the rats recovered fully within 30-60 min following reperfusion. Rats were tested between 2 and 14 days post-IR injury.” left out
Plantar blood flow and post-occlusive reactive hyperemia were measured using a laser Doppler perfusion and temperature monitor (DRT4, Moor Instruments, Wilmington, Del.) to assess microvascular function (Morales et al., Microvasc. Res., 69(1-2):17-23, 2005). […] Body temperature was monitored through a rectal thermometer coupled to a heating pad (FHC, Bowdoinham, Me.), and was maintained between 37.5° C. and 39.0° C. throughout the experiment. The plantar blood flow of the ipsilateral hind paw was monitored using a laser-emitting probe placed in between the tori pads of the hind paw, along the midline. […]

The test system of a further assay is sham rats. Kind of assay: Laser Doppler post-occlusive reactive hyperemia in sham rats, systemic pentoxifylline. Particulars: 25 mg/kg i.p. On the procedure: Plantar blood flow and post-occlusive reactive hyperemia were measured using a laser Doppler perfusion and temperature monitor (DRT4, Moor Instruments, Wilmington, Del.) to assess microvascular function (Morales et al., Microvasc. Res., 69(1-2):17-23, 2005). Briefly, rats (n=6 for each group) were anesthetized with bolus (1 g/kg) and maintenance doses (200 mg/kg prn) of urethane, and placed in the prone position. Body temperature was monitored through a rectal thermometer coupled to a heating pad (FHC, Bowdoinham, Me.), and was maintained between 37.5° C. and 39.0° C. throughout the experiment. The plantar blood flow of the ipsilateral hind paw was monitored using a laser-emitting probe placed in between the tori pads of the hind paw, along the midline. […] At the rate of one sample per second, an initial 10 minute baseline blood flux was recorded, followed by a 2 minute occlusion induced by pressurizing and inflating a tight fitting loop of Tygon® R 3603 tubing (outside diameter=2.38 mm, inside diameter=0.79 mm, wall thickness=0.79 mm) connected to an air-filled pump-driven 60 mL syringe (Model 11, Harvard Apparatus, Montreal, QC), creating a tourniquet around the ankle joint. […] Post-occlusive reactive hyperemia was monitored by continuously sampling flux at the rate of 1/sec for 2 min following the onset of reperfusion. […]

For assay [3], the system named is CPIP rats. Kind of assay: Mechanical allodynia (von Frey PWT) in CPIP rats after systemic pentoxifylline. To be noted: vs vehicle. On the procedure:
as §1, with “The termination of sodium pentobarbital anesthesia was timed so that the rats recovered fully within 30-60 min following reperfusion. Rats were tested between 2 and 14 days post-IR injury.” left out
as §2, with “Nylon monofilaments were applied in either ascending (after negative response) or descending (after positive response) force as necessary to determine the filament closest to the threshold of response. Each filament was applied for 10 s or until a flexion reflex occurred. The minimum stimulus intensity was 1 g and the maximum was 15 g.” left out

`CC(=O)N[C@H](C(=O)O)C(C)(C)SN=O` [SNAP, S-nitroso-N-acetyl-penicillamine]: the “anti-allodynic effect (PWT to von Frey hair stimulation)” value (from here on “anti-allodynic effect”) is “inactive” in the assay with CPIP rats [1] (topical ipsilateral, 0.0625% W/W (lowest)); “significant effects” in the assay with CPIP rats [1] (topical ipsilateral, all concentrations except the lowest (0.125, 0.25 and 0.5% W/W)).

`Nc1cc(Cl)c(N=C2NCCN2)c(Cl)c1` [apraclonidine]: the “effectiveness of the agent when administered topically in the combinations” value (“effectiveness of the agent” below) in the assay on CPIP rats [1] was “highly effective”. The “anti-allodynic effect” value was “inactive” in the assay on CPIP rats [1] (topical ipsilateral, 0.005% W/W (lowest)); “effective against mechanical allodynia” in the assay with CPIP rats [1] (topical ipsilateral, all concentrations except the lowest (0.01, 0.02 and 0.04% W/W)).

As to `Clc1cccc(Cl)c1N=C1NCCN1` [clonidine], the “effectiveness of the agent” value in the assay on CPIP rats [1] is “highly effective”. The “anti-allodynic effect” value with CPIP rats [1] (topical ipsilateral, 0.0075% W/W) was “inactive”; with CPIP rats [1] (topical ipsilateral, 0.03% W/W), “significant anti-allodynic effects”; in the assay with CPIP rats [1] (topical ipsilateral, 0.06% W/W), “significant anti-allodynic effects”.

On to `[NH-]c1c[n+](N2CCOCC2)no1` [linsidomine], for which the “effectiveness of the agent” value with CPIP rats [1] was “highly effective”. The “anti-allodynic effect” value in the assay on CPIP rats [1] (topical ipsilateral, 0.4% W/W) is “inactive”; in the assay with CPIP rats [1] (topical ipsilateral, 0.8% W/W, post drug vs pre-drug), “significantly different from their pre-drug values”; with CPIP rats [1] (topical ipsilateral, 1.6% W/W, post drug vs pre-drug), “significantly different from their pre-drug values”.

On to `C[C@@H](O)CCCCn1c(=O)c2c(ncn2C)n(C)c1=O` [lisofylline], for which the “effectiveness of the agent” value in the assay on CPIP rats [1] is “highly effective”. For the same compound, the “anti-allodynic effect” value was “inactive” in the assay on CPIP rats [1] (topical ipsilateral, lowest concentration 0.063% W/W); “only the lowest concentration (0.063% W/W) was observed to be inactive” in the assay on CPIP rats [1] (topical ipsilateral, the three higher concentrations (0.09, 0.125 and 0.25% W/W)).

For `CC(=O)CCCCn1c(=O)c2c(ncn2C)n(C)c1=O` [pentoxifylline], the “effect on delayed post-occlusive reactive hyperemia (microvascular dysfunction)” value with CPIP rats [2] is “reversed”. In addition, the “effect on normal post-occlusive reactive hyperemia” value with sham rats is on record as “no effect”. Moreover, the “effectiveness of the agent” value in the assay on CPIP rats [1] is listed as “highly effective”. The “anti-allodynic effect” value with CPIP rats [1] (topical ipsilateral hind paw, 5% W/W, 45 min post-application) was “significantly attenuated mechanical allodynia”; in the assay on CPIP rats [1] (topical ipsilateral, 0.6% W/W), “devoid of any effect”; in the assay on CPIP rats [1] (topical ipsilateral, 1.2% W/W), “devoid of any effect”. The “allodynia (PWT to von Frey hair stimulation)” value with CPIP rats [3] (25 mg/kg) and with CPIP rats [3] (50 mg/kg) was “attenuated allodynia” each time.
